pIC50: −log10 of the molar value. Like-named read-outs stand apart in the source and are kept apart here.
How the values were obtained:
[1] = target: KRAS-G12C/SOS1 interaction (Homo sapiens (Human), UniProt Q07889); assay: Protein-Protein Interaction (PPI) assay, SOS1-KRAS binding assay kit (HTRF)
Experimental: This Example illustrates that exemplary compounds of the present invention blockade the interaction of SOS1 to KRAS protein.
The ability of a compound of Formula (I) to block the interaction of SOS1 to KRAS was measured using a SOS1-KRAS binding assay kit (CAT #63ADK000CB16PEG, Cisbio). Utilizing HTRF (Homogeneous Time-resolved Fluorescence) technology, the assay enables simple and rapid characterization of compound and antibody blockers in a high throughput format. The interaction between Tag1-SOS1 and Tag2-KRAS-G12C is detected by using anti-Tag1-Terbium antibody (HTRF donor) and anti-Tag2-XL665 antibody (HTRF acceptor). When the donor and acceptor antibodies are brought into close proximity due to SOS1 and KRAS-G12C binding, excitation of the donor antibody triggers fluorescent resonance energy transfer (FRET) towards the acceptor antibody, which in turn emits specifically at 665 nm. This specific signal is directly proportional to the extent of KRAS-G12C/SOS1 interaction.
The assay was carried according to the manufacturer's instructions. Compounds at an initial concentration of 10 mM in DMSO were first serially diluted on a 384-well plate using assay buffer at a ratio of 1:3 for a total of 9 concentrations with each of a volume of 20 μL. Blank buffer was included as the negative control. The final compound solution was in the buffer solution with 1% DMSO. Then, in each well of a 384-well plate, a solution of 2 μL compound solution, 4 μL tagged SOS1 and KRAS (G12C) protein stocks, respectively, and 10 μM GTP was incubated for 15 min. 10 μL mixture of […] antibody and anti-Tag1-Terbium antibody was introduced to each individual well. After 2 hours incubation at room temperature, fluorescence readout was measured with a Pelkin Elmer multiple plate reader VICTOR Nivo.
Excitation was from over a range of 245-395 nm, and emission from the donor (emission 1) was detected at […] and emission from the acceptor (emission 2) was detected at (606.5-623.5) nm. The HTRF ratio was calculated using the formula: (emission 1 @665 nm/emission 2 @620 nm)×10000. Thus, compounds blocking KRAS-G12C/SOS1 interaction will cause a reduction in HTRF signal ratio. The IC50 values were then calculated with the Graph pad Prism software.

pERK in Hela cells = assay: Phospho-ERK (p-ERK) assay in Hela cells; format: cell-based; settings: Homo sapiens, β-actin normalized
Experimental: This Example illustrates that exemplary compounds of the present invention prevent KRas-mediated GTP nucleotide exchange mediated by SOS1 to inhibit KRas activity, thereby inhibiting the generation of the downstream effector pERK.
Hela cells (23,000/w) were seeded in a black clear flat bottom 96-well cell culture plate (Corning, #3904) and incubated at 37° C. overnight. At day 2, cells were dosed with compounds of Formula (I) with a 10 μM starting concentration and serially diluted 3× for a total of 9 concentrations. The cells were incubated for 1 hour with the compounds solubilized in DMSO at 37° C. Cells were immediately fixed by adding 100 μL of 8% formaldehyde to all wells in a fume hood and the plates were incubated for 1 hr at room temperature. The formaldehyde was discarded from the plates and washed 5 times and each time for 5 min with 200 μL of Triton Washing Solution (0.1% Triton in PBS) each time to permeabilize the cells. Cells were then blocked with 150 μL of Odyssey blocking buffer (LI-COR Biosciences #927-50010) at room temperature on a shaker. The blocking buffer was discarded and 50 μL of primary antibodies pERK (cell signaling Technology #4370; Rabbit, 1:500) and β-actin (AF5001; Mouse, 1:2000) diluted in Odyssey blocking buffer was added. The plates were incubated overnight at 4° C. on a shaker.
On day 3, the primary antibody solution was removed. Each plate was washed 5× times with 200 μL of 1×PBST (PBS+0.1% Tween 20) and incubated with 50 μL of secondary antibodies: Anti-Rabbit (LI-COR Biosciences #926-32211) and Anti-Mouse (LI-COR Biosciences #68070) at 1:1000 dilution in Odyssey blocking buffer at room temperature on a shaker for 1 hour (protected from light). The secondary antibody solution as removed and each plate was washed with PBST 5× times. Any liquid remaining was discarded and the plate was imaged using the Licor Odyssey machine according to the manufacturer's instruction, using a set focus length at 3.5 mm and both 800 nm and 700 nm filters. The 3-actin normalized scan values for each well were divided by the average of vehicle wells to get the % of p-ERK inhibition. The IC50 values were then calculated with the Graph pad Prism software. In general, p-ERK IC50 data are in line with the PPI IC50 data.

KRAS-G12C/SOS1 interaction, sequence (Q07889 whole entry, stated change not applied): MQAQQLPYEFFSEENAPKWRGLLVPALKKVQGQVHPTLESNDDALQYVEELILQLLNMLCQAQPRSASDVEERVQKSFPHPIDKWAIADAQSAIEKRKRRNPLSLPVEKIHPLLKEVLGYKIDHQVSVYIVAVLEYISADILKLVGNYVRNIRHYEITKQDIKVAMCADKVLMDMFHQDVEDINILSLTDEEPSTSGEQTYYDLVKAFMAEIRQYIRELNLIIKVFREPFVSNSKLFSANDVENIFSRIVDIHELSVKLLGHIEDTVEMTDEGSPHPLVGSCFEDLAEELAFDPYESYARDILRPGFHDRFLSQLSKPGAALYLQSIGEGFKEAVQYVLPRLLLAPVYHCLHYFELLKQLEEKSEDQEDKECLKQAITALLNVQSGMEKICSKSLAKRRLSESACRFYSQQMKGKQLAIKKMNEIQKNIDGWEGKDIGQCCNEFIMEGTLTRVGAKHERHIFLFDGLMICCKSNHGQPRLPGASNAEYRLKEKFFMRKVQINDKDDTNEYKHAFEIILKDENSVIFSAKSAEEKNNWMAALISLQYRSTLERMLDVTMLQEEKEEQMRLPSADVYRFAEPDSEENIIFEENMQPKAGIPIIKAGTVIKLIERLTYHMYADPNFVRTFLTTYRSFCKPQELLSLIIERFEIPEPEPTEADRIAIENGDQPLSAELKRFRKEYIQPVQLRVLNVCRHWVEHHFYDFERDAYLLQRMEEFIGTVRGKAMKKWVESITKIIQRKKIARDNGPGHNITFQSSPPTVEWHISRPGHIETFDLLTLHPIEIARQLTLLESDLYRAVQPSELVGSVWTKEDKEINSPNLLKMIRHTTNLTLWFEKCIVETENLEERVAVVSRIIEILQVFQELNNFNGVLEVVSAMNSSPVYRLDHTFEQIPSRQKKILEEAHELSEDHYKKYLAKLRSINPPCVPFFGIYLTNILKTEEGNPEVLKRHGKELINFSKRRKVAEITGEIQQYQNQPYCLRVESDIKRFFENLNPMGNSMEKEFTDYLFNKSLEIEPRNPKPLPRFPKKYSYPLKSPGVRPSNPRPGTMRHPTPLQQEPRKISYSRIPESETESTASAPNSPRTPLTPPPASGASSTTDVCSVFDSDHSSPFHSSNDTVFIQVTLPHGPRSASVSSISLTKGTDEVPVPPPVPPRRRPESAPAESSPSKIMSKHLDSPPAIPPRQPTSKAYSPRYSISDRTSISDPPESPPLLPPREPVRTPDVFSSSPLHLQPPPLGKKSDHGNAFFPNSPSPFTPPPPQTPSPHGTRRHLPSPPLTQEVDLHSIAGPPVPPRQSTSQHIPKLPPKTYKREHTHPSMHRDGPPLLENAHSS

SMILES	pIC50 ([1]; read-out: PPI Assay IC50)	pIC50 [1]	pIC50 (pERK in Hela cells; Table 1, 1 hour with compound)	pIC50 (pERK in Hela cells; Table 2, 1 hour with compound)
C[C@@H](Nc1ncnc2c1cc(C1CCN(S(C)(=O)=O)CC1)c1nnnn12)c1cccc(C(F)F)c1F [Example 146]	> 7.00	–	> 7.00	–
CC(=O)N1CCC(c2cc3c(N[C@H](C)c4cccc(C(F)F)c4F)ncnc3n3nnnc23)CC1 [Example 145]	> 7.00	–	> 7.00	–
C[C@@H](Nc1ncnc2c1cc(N1CCOCC1=O)c1nncn12)c1cccc(C(F)F)c1F [Example 162]	> 7.00	–	> 7.00	–
Cc1nc(N[C@H](C)c2cccc(C(F)F)c2F)c2cc(C(=O)N3CC4CC(C3)O4)c3ncnn3c2n1 [Example 35]	> 7.00	–	< 7.00	–
Cc1nc(N[C@H](C)c2cccc(C(F)F)c2F)c2cc(C3=CCS(=O)(=O)CC3)c3nncn3c2n1 [Example 151, (R)-4-(4-((1-(3-(difluoromethyl)-2-fluorophenyl)ethyl)amino)-2-methyl-[1,2,4]triazolo[4′,3′:1,6]pyrido[2,3-d]pyrimidin-6-yl)-3,6-dihydro-2H-thiopyran 1,1-dioxide]	> 7.00	–	< 7.00	–
Cc1nc(N[C@H](C)c2cccc(C(F)F)c2F)c2cc(C(=O)N3C4CCC3CN(C)C4)c3ncnn3c2n1 [Example 37]	> 7.00	–	< 7.00	–
COC1(c2cc3c(N[C@H](C)c4cccc(C(F)F)c4F)ncnc3n3nnnc23)CCN(C(C)=O)CC1 [Example 125]	> 7.00	–	> 7.00	–
Cc1nc(N[C@H](C)c2cc(N)cc(C(F)(F)F)c2)c2cc(C(=O)N3CCOCC3)c3ncnn3c2n1 [Example 2, (R)-(6-((1-(3-amino-5-(trifluoromethyl)phenyl)ethyl)amino)-8-methyl-[1,2,4]triazolo[1′,5′:1,6]pyrido[2,3-d]pyrimidin-4-yl)(morpholino)methanone]	> 7.00	–	< 7.00	–
CCS(=O)(=O)N1CCC(c2cc3c(N[C@H](C)c4cccc(C(F)F)c4F)nc(C)nc3n3cnnc23)CC1 [Example 70]	–	< 7.00	–	< 7.00
Cc1nc(N[C@H](C)c2cccc(C(F)F)c2F)c2cc(C3CC[S+]([O-])CC3)c3nncn3c2n1 (stereo partly shown) [Example 150]	> 7.00	–	< 7.00	–
COC1(c2cc3c(N[C@H](C)c4cccc(C(F)F)c4F)nc(C)nc3n3c(C)nnc23)CCN(C(C)=O)CC1 [Example 124]	> 7.00	–	> 7.00	–
C[C@@H](Nc1ncnc2c1cc(N1CCOCC1=O)c1nncn12)c1cc(N)cc(C(F)(F)F)c1 [Example 86]	> 7.00	–	> 7.00	–
COCC(=O)N1CCC(c2cc3c(N[C@H](C)c4cc(N)cc(C(F)(F)F)c4)nc(C)nc3n3nnnc23)CC1 [Example 147]	> 7.00	–	< 7.00	–
Cc1nc(N[C@H](C)c2cc(N)cc(C(F)(F)F)c2)c2cc(N3CCOCC3)c3nncn3c2n1 [Example 85]	> 7.00	–	> 7.00	–
C[C@@H](Nc1ncnc2c1cc(N1CCOCC1)c1nncn12)c1cccc(C(F)F)c1F [Example 79]	> 7.00	–	> 7.00	–
C[C@@H](Nc1ncnc2c1cc(C1(C(F)(F)F)CC1)c1nncn12)c1cccc(C(F)F)c1F [Example 172]	> 7.00	–	> 7.00	–
CC(=O)N1CCC(O)(c2cc3c(N[C@H](C)c4cccc(C(F)F)c4F)ncnc3n3nnnc23)CC1 [Example 113]	> 7.00	–	< 7.00	–
Cc1nc(N[C@H](C)c2cc(N)cc(C(F)(F)F)c2)c2cc(N3CCOCC3)c3nnc(C)n3c2n1 [Example 87]	–	< 7.00	–	–
CC(=O)N1CCC(O)(c2cc3c(N[C@H](C)c4cccc(C(F)F)c4F)nc(C)nc3n3c(C)nnc23)CC1 [Example 111]	> 7.00	–	–	–

Further lines, with some results ahead:

pIC50 ([1]; read-out: PPI Assay IC50)	pIC50 [1]	SMILES	pIC50 (pERK in Hela cells; Table 1, 1 hour with compound)	pIC50 (pERK in Hela cells; Table 2, 1 hour with compound)
> 7.00	–	CC(=O)N1CCN(C(=O)c2cc3c(N[C@H](C)c4cccc(C(F)F)c4F)nc(C)nc3n3ncnc23)CC1 [Example 20]	< 7.00	–
> 7.00	–	Cc1nc(N[C@H](C)c2cccc(C(F)F)c2F)c2cc(C(=O)N3CCN(CCO)CC3)c3ncnn3c2n1 [Example 23]	< 7.00	–
> 7.00	–	CC(=O)N1CCC(c2cc3c(N[C@H](C)c4cccc(C(F)F)c4F)nc(C)nc3n3nnnc23)CC1 [Example 142]	< 7.00	–
> 7.00	–	Cc1nc(N[C@H](C)c2cccc(C(F)F)c2F)c2cc(C(=O)N3CCOCC3)c3nnnn3c2n1 [Example 58]	> 7.00	–
> 7.00	–	Cc1nc2c(N3CCOCC3)cc3c(N[C@H](C)c4cccc(C(F)F)c4F)ncnc3n2n1 [Example 154]	> 7.00	–
> 7.00	–	CC(=O)N1CCC(F)(c2cc3c(N[C@H](C)c4cccc(C(F)F)c4F)nc(C)nc3n3nnnc23)CC1 [Example 116]	> 7.00	–
> 7.00	–	C[C@@H](Nc1ncnc2c1cc(C(=O)N1C3CC1CN(C)C3)c1ncnn12)c1cccc(C(F)F)c1F [Example 47]	< 7.00	–
> 7.00	–	CC(=O)N1CCN(c2cc3c(N[C@H](C)c4cccc(C(F)F)c4F)nc(C)nc3n3nnnc23)CC1 [Example 92]	> 7.00	–
> 7.00	–	CC(=O)N1CCC(C)(c2cc3c(N[C@H](C)c4cccc(C(F)F)c4F)nc(C)nc3n3nnnc23)CC1 [Example 131]	> 7.00	–
> 7.00	–	Cc1nc(N[C@H](C)c2cccc(C(F)F)c2F)c2cc(C(=O)N3CCSCC3)c3ncnn3c2n1 [Example 17]	< 7.00	–
> 7.00	–	CC(=O)N1CCN(c2cc3c(N[C@H](C)c4cccc(C(F)F)c4F)ncnc3n3nnnc23)CC1 [Example 99]	> 7.00	–
> 7.00	–	CC(=O)N1CC=C(c2cc3c(N[C@H](C)c4cccc(C(F)F)c4F)nc(C)nc3n3nnnc23)CC1 [Example 105]	> 7.00	–
> 7.00	–	COCC(=O)N1CCC(c2cc3c(N[C@H](C)c4cccc(C(F)F)c4F)nc(C)nc3n3cnnc23)CC1 [Example 68]	< 7.00	–
> 7.00	–	Cc1nc(N[C@H](C)c2cc(N)cc(C(F)(F)F)c2)c2cc(C(=O)N3CCN(CCO)CC3)c3ncnn3c2n1 [Example 5]	< 7.00	–
> 7.00	–	COC1(c2cc3c(N[C@H](C)c4cccc(C(F)F)c4F)nc(C)nc3n3cnnc23)CCN(C(C)=O)CC1 [Example 118, (R)-1-(4-(4-((1-(3-(difluoromethyl)-2-fluorophenyl)ethyl)amino)-2-methyl-[1,2,4]triazolo[4′,3′:1,6]pyrido[2,3-d]pyrimidin-6-yl)-4-methoxypiperidin-1-yl)ethan-1-one]	> 7.00	–
–	< 7.00	Cc1nc(N[C@H](C)c2cccc(C(F)F)c2F)c2cc(C(=O)NC(C)(C)C)c3ncnn3c2n1 [Example 10]	–	–
> 7.00	–	C[C@@H](Nc1ncnc2c1cc(C(=O)N1CCC13CNC3)c1ncnn12)c1cccc(C(F)F)c1F [Example 45]	–	–
> 7.00	–	C[C@@H](Nc1ncnc2c1cc(C(=O)N1CCN(CCS(C)(=O)=O)CC1)c1ncnn12)c1cccc(C(F)F)c1F [Example 41]	–	–
> 7.00	–	Cc1nc(N[C@H](C)c2cccc(C(F)F)c2F)c2cc(C(=O)N3CCN(CCS(C)(=O)=O)CC3)c3nnnn3c2n1 [Example 59]	–	–

From patent US20250230159A1, “FUSED HETEROCYCLIC COMPOUNDS AS MODULATORS OF RAS SIGNALLING” (Shenzhen Ionova Life Science Co., Ltd., priority 2022, published 2025)
